Test results published in paper PMC11872507, “Lasso peptides sviceucin and siamycin I exhibit anti-virulence activity and restore vancomycin effectiveness in vancomycin-resistant pathogens” (iScience, 2025).
≈ marks a conversion by molar mass, not a printed value.

Assays:
E. faecium 1 231 502 = test: microbe, parasite or virus in culture; format: cell-based, Enterococcus faecium; conditions: Enterococcus faecium, 1231502, read-out: Vancomycin MIC
E. faecalis V583 ΔvanB = test: microbe, parasite or virus in culture; format: cell-based, Enterococcus faecalis; conditions: Enterococcus faecalis, read-out: Vancomycin MIC
Svic1 ΔvanB = test: Vancomycin MIC, microdilution; format: cell-based; conditions: Enterococcus faecalis; vancomycin alone (control)
[1] = tested on: V583 ΔvanSBmalT::vanR^D53E; test: Vancomycin MIC, microdilution; format: cell-based; conditions: Enterococcus faecalis; vancomycin alone (control); phosphomimetic VanR^D53E
Protocol: The MIC of vancomycin was determined by the microdilution method described in the guidelines of the European Committee on Antimicrobial Susceptibility Testing (EUCAST 2024, v14.0 Breakpoint Tables).[58] For enterococci, GM17 medium was used instead of CAMH medium since enterococci cannot degrade starch, the main carbohydrate of MH medium. 2-fold serial dilutions of the tested antibiotic were performed to obtain concentrations ranging from 0.5 to 512 μg/mL. LP were then added to the wells at the desired concentration. The medium was inoculated with a final inoculum of 5 × 10^5 CFU/mL. The MIC is the lowest concentration that prevents visible in vitro growth.

V583 ΔvanB::vanA = test: Vancomycin MIC, microdilution; format: cell-based; conditions: Enterococcus faecalis; vancomycin alone (control)
Protocol: (§1) To further support this, we investigated the origin of the different activity spectra of sviceucin and siamycin I between VanA- and VanB-type vancomycin resistance. We first replaced vanSB by vanS in the VanB-type strain E. faecalis V583. VanS-VanRB strain was sensitive to vancomycin (MIC = 2 μg/mL), probably because of an impaired signal transduction between VanS and VanRB. To bypass this issue, we replaced the vanRBSB-PvanYB fragment by the vanRS-PvanH fragment from a VanA-type operon, resulting in a VanA-type transduction system fused to VanB-type resistance genes.

[2] = tested on: V583 ΔvanSB-vanRB::vanS-vanR; test: Vancomycin MIC, microdilution; format: cell-based; conditions: Enterococcus faecalis; vancomycin alone (control); VanA-type transduction system, VanB-type resistance genes
Protocol: as §1

VanS-VanRB strain = test: Vancomycin MIC, microdilution; format: cell-based; conditions: Enterococcus faecalis; vanSB replaced by vanS in V583
Protocol: as §1

[3] = tested on: vanYB in E. faecalis V583; test: vanYB expression by RT-qPCR; format: cell-based, Enterococcus faecalis; conditions: vancomycin 1 μg/mL alone
Protocol: (§2) For gelE gene expression measurements, bacteria were cultured in GM17 medium supplemented with the 1:1 water:methanol formulation or either sviceucin at 10 μM, or siamycin I at 1 μM. Cultures were incubated at 37°C until reaching OD600 of 0.5. For vanY gene expression measurements, bacteria were cultured in GM17 medium supplemented with either vancomycin at 1 μg/mL or sviceucin at 10 μM and vancomycin at 1 μg/mL at 37°C to induce the expression of van genes until reaching OD600 of 0.5. Bacteria were recovered by centrifugation at 4200 RCF for 2 min. Once the supernatant was discarded, the pellets were stored at −80°C. Pellets were resuspended in TE buffer or ML lysis buffer, depending on kit used, and transferred in Lysis Matrix B Tubes (MP Biomedicals, USA) before cell lysis with a FastPrep-24 5G (2 × 40 s at 6 m/s, 5 min on ice in-between cycles) (MP Biomedicals, USA). After bead-beating lysis, RNA extraction was performed using Direct-Zol RNA Miniprep kit (Zymo Research, USA) for gelE gene expression measurements or NucleoSpin^Ⓡ miRNA Miniprep kit (Macherey-Nagel, Germany) for vanY gene expression measurements, according to the manufacturers’ instructions. Retrotranscription was performed using QuantiTect Reverse transcription (QIAGEN, Germany). qPCR on cDNA was performed with GoTaq qPCR (Promega, USA). […] Data were analyzed with CFX Manager software (Biorad, USA).

vanYB in Svic1 = test: vanYB expression by RT-qPCR; format: cell-based, Enterococcus faecalis; conditions: vancomycin 1 μg/mL alone
Protocol: as §2

E. faecalis V583 = test: Quantification of D-Ala-D-Lac muropeptides by LCMS; format: cell-based, Enterococcus faecalis; conditions: vancomycin alone, 2 μg/mL; means of at least two biological replicates
Protocol: (§3) Extraction of muropeptides was performed as previously described[64] with modifications. Bacteria were cultured overnight in GM17 medium supplemented with 2 μg/mL of vancomycin (Merck, USA), 10 μM of sviceucin, or 2 μM of siamycin I. Bacteria were pelleted by centrifugation for 5 min at 10000 rpm and then resuspended in 1 mL of 0.1 M Tris-HCl (pH 6.8), 0.25% SDS. Samples were boiled for 20 min in a heating block (Biolock Scientific, USA) and then centrifuged for 5 min at 10000 rpm. The pellets were washed twice with 1 mL of cold ultrapure water before sonication for 30 min (Branson 1800 Cleaner, USA). 500 μL of DNase 15 μg/mL and RNase 60 μg/mL (Sigma-Aldrich, USA) were added to each sample then incubated at 37°C for 60 min. […] Pellets were resuspended in 12,5 mM sodium phosphate buffer (pH 5.5), then muropeptides concentration was determined and standardized to an OD578 of 3. […]
(§4) LCMS analysis was performed on an ultra-high performance LC system (Ultimate 3000 RSLC, Thermo Scientific, USA) coupled to a high-resolution electrospray ionization-quadrupole-time of flight mass spectrometer (MaXis II ETD, Bruker Daltonics, USA). […] Mass data were analyzed by Data Analysis 4.4 (Bruker Daltonics, USA). For quantification, the m/z corresponding to singly- and doubly-charged species of monomer, as well as doubly- and triply-charged species of dimers of muropeptides were manually searched. […]

Svic1 = test: Quantification of D-Ala-D-Lac muropeptides by LCMS; format: cell-based, Enterococcus faecalis; conditions: vancomycin alone, 2 μg/mL; means of at least two biological replicates
Protocol: as §3, §4

SMILES: CN[C@H](CC(C)C)C(=O)N[C@H]1C(=O)N[C@@H](CC(N)=O)C(=O)N[C@H]2C(=O)N[C@H]3C(=O)N[C@H](C(=O)N[C@H](C(=O)O)c4cc(O)cc(O)c4-c4cc3ccc4O)[C@H](O)c3ccc(c(Cl)c3)Oc3cc2cc(c3O[C@@H]2O[C@H](CO)[C@@H](O)[C@H](O)[C@H]2O[C@H]2C[C@](C)(N)[C@H](O)[C@H](C)O2)Oc2ccc(cc2Cl)[C@H]1O [Vancomycin]
- MIC (E. faecium 1 231 502): 128 mg/L (≈ 88.3 µM)
- MIC (E. faecalis V583 ΔvanB): 2 mg/L (≈ 1.38 µM)
- MIC (Svic1 ΔvanB): 2 mg/L (≈ 1.38 µM)
- MIC [1]: 32 mg/L (≈ 22.1 µM)
- MIC (V583 ΔvanB::vanA): 32 mg/L (≈ 22.1 µM)
- MIC [2]: 32 mg/L (≈ 22.1 µM)
- MIC (VanS-VanRB strain): 2 mg/L (≈ 1.38 µM)
- vanYB expression induced by vancomycin, in words [3]: strongly induced
- vanYB expression induced by vancomycin, in words (vanYB in Svic1): strongly induced
- percentage of muropeptides D-Ala-D-Lac (E. faecalis V583): 48.3%
- percentage of muropeptides D-Ala-D-Lac (Svic1): 62.0%
